Earlier results in patent publication US12390412B2, “Hydroglycolic cosmetic composition with a high active content” (L'OREAL, priority 2020, dated 2025).

Conditions: pH of the composition about 3.0 to about 4.0, more particularly about 3.5

O=C1O[C@H]([C@@H](O)CO)C(O)=C1O [ascorbic acid]
ascorbic acid remains in a protonated, uncharged form: greater than 82%
